pKi: −log10 of the molar value. Where “and” joins values, the source holds several entries; their conditions need not be identical. Equal values may be shown once.
Experiments:
[1] = biological target: T1, HuPON1 purified from serum (Homo sapiens, UniProt P27169); conditions: read-out: Ki for 2-hydroxyquinoline inhibition of phenyl acetate hydrolysis by HuPON1 purified from serum; cited from earlier work
T1 construct: measured for hydrolysis of phenylacetate by serum huPON1; host or cells: human serum
T1 sequence (P27169 whole entry): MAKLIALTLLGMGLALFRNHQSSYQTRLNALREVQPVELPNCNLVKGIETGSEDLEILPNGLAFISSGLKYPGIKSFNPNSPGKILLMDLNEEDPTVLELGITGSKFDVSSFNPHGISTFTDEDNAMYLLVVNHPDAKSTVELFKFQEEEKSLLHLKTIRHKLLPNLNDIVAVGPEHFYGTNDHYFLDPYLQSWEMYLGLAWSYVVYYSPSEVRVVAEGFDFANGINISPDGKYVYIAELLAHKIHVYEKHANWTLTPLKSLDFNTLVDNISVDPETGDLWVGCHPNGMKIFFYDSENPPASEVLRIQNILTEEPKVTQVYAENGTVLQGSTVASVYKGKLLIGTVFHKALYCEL

[2] = biological target: T2, rePON1 (G3H8) (Oryctolagus cuniculus, UniProt P27170, A301G/A320V/A67S/G19R/H177S/I126T/I187A/K138S/K151R/K297E/K93E/L143V/L7P/M130L/M341L/P82S/S101G/V343I); assay: biochemical
T2 construct: leaving the intact, 355 amino acids, PON1 protein without any additions; made in house; host or cells: E. coli Origami B (DE3), truncated pET32 vector without Trx, His and S tags
T2 sequence (P27170 with tags, fused parts or gaps with the stated changes): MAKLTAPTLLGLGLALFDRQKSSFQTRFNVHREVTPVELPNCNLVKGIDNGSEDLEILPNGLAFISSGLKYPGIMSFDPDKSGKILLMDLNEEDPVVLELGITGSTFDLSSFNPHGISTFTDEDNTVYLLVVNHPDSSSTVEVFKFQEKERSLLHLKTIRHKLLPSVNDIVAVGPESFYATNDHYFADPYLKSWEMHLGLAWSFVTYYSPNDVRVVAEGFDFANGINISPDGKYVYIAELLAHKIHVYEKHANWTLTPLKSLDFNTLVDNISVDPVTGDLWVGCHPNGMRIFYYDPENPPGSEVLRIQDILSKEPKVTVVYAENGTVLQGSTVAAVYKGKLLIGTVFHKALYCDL

Q: With `Oc1ccc2ccccc2n1` [2-hydroxyquinoline] as the molecule, how does the pKi [1] read?
A: ~5.30

Q: And the pKi ([2]; Inhibition constant (Ki))?
A: 4.96 and 5.52 and 5.38

Q: What about the pKi ([2]; inhibition constants for phenyl-acetate, paraxon and L-HcyT hydrolysis) of the same molecule?
A: 4.96 to 5.52

Source: patent publication US7786071B2 (priority 2003, dated 2010)
